Measurements published in ChEMBL document CHEMBL1201862, “PubChem BioAssay data set” (2004).
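1) Cells in 96-well plates. 2) Compound, 48 h, 5 concentrations. 3) Linear interpolation between surrounding doses. 4) Unreached endpoint = highest concentration. GI50 is the concentration that inhibits growth by half.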 Calls of active or inactive are those of the source. Cut-off read from the data, not from the text of the source: active = GI50 up to about 1.1 µM and inactive = higher.

Assays:
Test in all cases: NCI tumour cell line growth inhibition, 48 h
HCT-116 = tested on: HCT-116
T47D = tested on: T47D
HT-29 = tested on: HT-29
OVCAR-5 = tested on: OVCAR-5
LOX IMVI = tested on: LOX IMVI
OVCAR-3 = tested on: OVCAR-3
EKVX = tested on: EKVX
UO-31 = tested on: UO-31
A498 = tested on: A498
SW-620 = tested on: SW-620
ACHN = tested on: ACHN
CCRF-CEM = tested on: CCRF-CEM
UACC-257 = tested on: UACC-257
SNB-19 = tested on: SNB-19
NCI-H23 = tested on: NCI-H23
IGROV-1 = tested on: IGROV-1
CAKI-1 = tested on: CAKI-1
RXF 393 = tested on: RXF 393
TK-10 = tested on: TK-10
BT-549 = tested on: BT-549
SF-268 = tested on: SF-268
OVCAR-8 = tested on: OVCAR-8
SNB-75 = tested on: SNB-75
HOP-62 = tested on: HOP-62
SR = tested on: SR
COLO 205 = tested on: COLO 205
SK-MEL-2 = tested on: SK-MEL-2
PC-3 = tested on: PC-3
MDA-N = tested on: MDA-N
K562 = tested on: K562
OVCAR-4 = tested on: OVCAR-4
NCI-H226 = tested on: NCI-H226
DU-145 = tested on: DU-145
MOLT-4 = tested on: MOLT-4
Hs-578T = tested on: Hs-578T
SF-539 = tested on: SF-539
KM12 = tested on: KM12
NCI/ADR-RES = tested on: NCI/ADR-RES
MDA-MB-435 = tested on: MDA-MB-435
NCI-H460 = tested on: NCI-H460
A549 = tested on: A549
NCI-H522 = tested on: NCI-H522
HCT-15 = tested on: HCT-15
Malme-3M = tested on: Malme-3M
MCF7 = tested on: MCF7
RPMI-8226 = tested on: RPMI-8226
SK-OV-3 = tested on: SK-OV-3
HOP-92 = tested on: HOP-92
M14 = tested on: M14
HCC 2998 = tested on: HCC 2998
U-251 = tested on: U-251
UACC-62 = tested on: UACC-62
MDA-MB-231 = tested on: MDA-MB-231
SK-MEL-5 = tested on: SK-MEL-5
HL-60 = tested on: HL-60
SK-MEL-28 = tested on: SK-MEL-28
SF-295 = tested on: SF-295
786-0 = tested on: 786-0
SN12C = tested on: SN12C

CC(O)C1(CNc2cc(Cl)nc(N)n2)CCCC1 (stereo unspecified)
GI50 (HCT-116): > 100 µM (inactive) | GI50 (T47D): > 100 µM (inactive) | GI50 (HT-29): > 100 µM (inactive) | GI50 (OVCAR-5): > 100 µM (inactive) | GI50 (LOX IMVI): > 100 µM (inactive) | GI50 (OVCAR-3): > 100 µM (inactive) | GI50 (EKVX): > 100 µM (inactive) | GI50 (UO-31): > 100 µM (inactive) | GI50 (A498): > 100 µM (inactive) | GI50 (SW-620): > 100 µM (inactive) | GI50 (ACHN): > 100 µM (inactive) | GI50 (CCRF-CEM): > 100 µM (inactive) | GI50 (UACC-257): > 100 µM (inactive) | GI50 (SNB-19): > 100 µM (inactive) | GI50 (NCI-H23): 90.4 µM (inactive) | GI50 (IGROV-1): > 100 µM (inactive) | GI50 (CAKI-1): > 100 µM (inactive) | GI50 (RXF 393): > 100 µM (inactive) | GI50 (TK-10): > 100 µM (inactive) | GI50 (BT-549): > 100 µM (inactive) | GI50 (SF-268): > 100 µM (inactive) | GI50 (OVCAR-8): > 100 µM (inactive) | GI50 (SNB-75): 71 µM (inactive) | GI50 (HOP-62): > 100 µM (inactive) | GI50 (SR): > 100 µM (inactive) | GI50 (COLO 205): > 100 µM (inactive) | GI50 (SK-MEL-2): > 100 µM (inactive) | GI50 (PC-3): > 100 µM (inactive) | GI50 (MDA-N): > 100 µM (inactive) | GI50 (K562): > 100 µM (inactive) | GI50 (OVCAR-4): 75.3 µM (inactive) | GI50 (NCI-H226): > 100 µM (inactive) | GI50 (DU-145): > 100 µM (inactive) | GI50 (MOLT-4): > 100 µM (inactive) | GI50 (Hs-578T): > 100 µM (inactive) | GI50 (SF-539): > 100 µM (inactive) | GI50 (KM12): > 100 µM (inactive) | GI50 (NCI/ADR-RES): > 100 µM (inactive) | GI50 (MDA-MB-435): > 100 µM (inactive) | GI50 (NCI-H460): > 100 µM (inactive) | GI50 (A549): > 100 µM (inactive) | GI50 (NCI-H522): > 100 µM (inactive) | GI50 (HCT-15): > 100 µM | GI50 (Malme-3M): > 100 µM (inactive) | GI50 (MCF7): > 100 µM (inactive) | GI50 (RPMI-8226): > 100 µM (inactive) | GI50 (SK-OV-3): > 100 µM (inactive) | GI50 (HOP-92): 98.9 µM (inactive) | GI50 (M14): > 100 µM (inactive) | GI50 (HCC 2998): 23.4 µM (inactive) | GI50 (U-251): > 100 µM (inactive) | GI50 (UACC-62): > 100 µM (inactive) | GI50 (MDA-MB-231): > 100 µM (inactive) | GI50 (SK-MEL-5): > 100 µM (inactive) | GI50 (HL-60): > 100 µM (inactive) | GI50 (SK-MEL-28): > 100 µM (inactive) | GI50 (SF-295): > 100 µM (inactive) | GI50 (786-0): > 100 µM (inactive) | GI50 (SN12C): > 100 µM (inactive)

CC1(C)OC2C(O)C(CO)OC2(C(F)F)O1 (stereo unspecified)
GI50 (HCT-116): > 100 µM (inactive) | GI50 (T47D): > 100 µM (inactive) | GI50 (HT-29): > 100 µM (inactive) | GI50 (OVCAR-5): > 100 µM (inactive) | GI50 (LOX IMVI): > 100 µM (inactive) | GI50 (OVCAR-3): > 100 µM (inactive) | GI50 (EKVX): > 100 µM (inactive) | GI50 (UO-31): > 31.3 µM (inactive) | GI50 (A498): > 100 µM (inactive) | GI50 (SW-620): > 100 µM (inactive) | GI50 (CCRF-CEM): > 100 µM (inactive) | GI50 (UACC-257): > 100 µM (inactive) | GI50 (SNB-19): > 47.1 µM (inactive) | GI50 (IGROV-1): > 100 µM (inactive) | GI50 (CAKI-1): > 100 µM (inactive) | GI50 (RXF 393): > 100 µM (inactive) | GI50 (TK-10): > 100 µM (inactive) | GI50 (BT-549): > 100 µM (inactive) | GI50 (SF-268): > 100 µM (inactive) | GI50 (OVCAR-8): > 100 µM (inactive) | GI50 (SNB-75): > 100 µM (inactive) | GI50 (HOP-62): > 100 µM (inactive) | GI50 (SR): > 100 µM (inactive) | GI50 (COLO 205): > 100 µM (inactive) | GI50 (SK-MEL-2): > 100 µM (inactive) | GI50 (PC-3): > 100 µM (inactive) | GI50 (MDA-N): > 100 µM (inactive) | GI50 (K562): > 100 µM (inactive) | GI50 (OVCAR-4): > 100 µM (inactive) | GI50 (NCI-H226): > 100 µM (inactive) | GI50 (DU-145): > 100 µM (inactive) | GI50 (MOLT-4): > 100 µM (inactive) | GI50 (Hs-578T): > 100 µM (inactive) | GI50 (SF-539): > 100 µM (inactive) | GI50 (KM12): > 100 µM (inactive) | GI50 (NCI/ADR-RES): > 100 µM (inactive) | GI50 (MDA-MB-435): > 63.5 µM (inactive) | GI50 (NCI-H460): > 100 µM (inactive) | GI50 (A549): > 100 µM (inactive) | GI50 (NCI-H522): > 100 µM (inactive) | GI50 (HCT-15): > 100 µM | GI50 (Malme-3M): > 100 µM (inactive) | GI50 (MCF7): > 100 µM (inactive) | GI50 (RPMI-8226): > 100 µM (inactive) | GI50 (SK-OV-3): > 100 µM (inactive) | GI50 (HOP-92): > 100 µM (inactive) | GI50 (M14): > 100 µM (inactive) | GI50 (HCC 2998): > 100 µM (inactive) | GI50 (U-251): > 100 µM (inactive) | GI50 (UACC-62): > 100 µM (inactive) | GI50 (MDA-MB-231): > 100 µM (inactive) | GI50 (SK-MEL-5): > 85.3 µM (inactive) | GI50 (HL-60): > 100 µM (inactive) | GI50 (SK-MEL-28): > 100 µM (inactive) | GI50 (SF-295): > 100 µM (inactive) | GI50 (786-0): > 100 µM (inactive) | GI50 (SN12C): > 100 µM (inactive)
